Molecular target: ROCK2 (Homo sapiens, UniProt O75116)
Test: ROCK assay: phosphorylation of FITC peptide substrate, LABCHIP 3000 mobility shift
Format: biochemical
Details: 5 μM ATP, 1.5 μM peptide substrate; read-out: ROCK2 Activity (ROCK IC50 range)
Outline: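 Rho kinase variant phosphorylates 1.5 μM FITC-AHA-AKRRRLSSLRA-OH with 5 μM ATP in 20 mM HEPES pH 7.5, 20 mM MgCl2, 0.015% Brij-35, 4 mM DTT, DMSO <2%. EDTA stops the reaction, and phospho and non-phospho peptides are resolved by LabChip 3000 mobility shift. IC50 from dose-response curve fit.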

ROCK2, sequence (O75116 whole entry, species assumed): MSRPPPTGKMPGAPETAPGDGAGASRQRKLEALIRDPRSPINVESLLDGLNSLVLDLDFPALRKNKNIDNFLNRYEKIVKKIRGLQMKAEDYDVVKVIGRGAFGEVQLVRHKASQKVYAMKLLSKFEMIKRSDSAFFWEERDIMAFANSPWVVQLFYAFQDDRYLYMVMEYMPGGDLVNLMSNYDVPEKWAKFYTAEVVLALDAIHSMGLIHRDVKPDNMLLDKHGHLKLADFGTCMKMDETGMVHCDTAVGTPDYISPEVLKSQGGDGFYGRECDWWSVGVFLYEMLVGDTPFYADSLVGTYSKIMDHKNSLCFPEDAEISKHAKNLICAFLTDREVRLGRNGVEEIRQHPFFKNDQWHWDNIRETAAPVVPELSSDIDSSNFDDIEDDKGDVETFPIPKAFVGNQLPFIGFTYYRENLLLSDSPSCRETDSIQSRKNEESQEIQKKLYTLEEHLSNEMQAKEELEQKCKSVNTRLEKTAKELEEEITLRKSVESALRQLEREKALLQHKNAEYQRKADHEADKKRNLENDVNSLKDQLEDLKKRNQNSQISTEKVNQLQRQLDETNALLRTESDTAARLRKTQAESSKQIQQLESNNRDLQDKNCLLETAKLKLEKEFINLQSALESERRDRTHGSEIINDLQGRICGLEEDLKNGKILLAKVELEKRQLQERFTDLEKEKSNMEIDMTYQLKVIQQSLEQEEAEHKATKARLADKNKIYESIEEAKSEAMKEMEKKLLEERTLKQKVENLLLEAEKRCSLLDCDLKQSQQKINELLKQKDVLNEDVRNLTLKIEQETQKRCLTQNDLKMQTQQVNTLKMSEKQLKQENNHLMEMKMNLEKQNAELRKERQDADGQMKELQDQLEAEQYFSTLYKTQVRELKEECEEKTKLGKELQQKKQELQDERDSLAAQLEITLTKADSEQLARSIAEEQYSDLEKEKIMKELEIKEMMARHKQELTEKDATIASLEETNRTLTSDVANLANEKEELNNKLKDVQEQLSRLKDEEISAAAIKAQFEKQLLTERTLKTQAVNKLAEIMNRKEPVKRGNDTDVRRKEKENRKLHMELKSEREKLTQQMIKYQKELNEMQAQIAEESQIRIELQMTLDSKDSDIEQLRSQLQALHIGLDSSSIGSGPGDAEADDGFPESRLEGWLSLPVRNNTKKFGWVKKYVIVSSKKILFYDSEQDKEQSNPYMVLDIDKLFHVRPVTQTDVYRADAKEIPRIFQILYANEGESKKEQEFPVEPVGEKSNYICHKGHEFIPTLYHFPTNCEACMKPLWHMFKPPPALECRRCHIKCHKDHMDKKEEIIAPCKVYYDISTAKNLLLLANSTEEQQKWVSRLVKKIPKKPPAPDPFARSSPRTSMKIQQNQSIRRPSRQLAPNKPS

First: O=C(NC1CC2(C1)CC(c1n[nH]c(=O)c3ccccc13)C2)c1cccc(-c2cn[nH]c2)c1 [Example 339, N-((aR)-6-(4-oxo-3,4-dihydrophthalazin-1-yl)spiro[3.3]heptan-2-yl)-3-(1H-pyrazol-4-yl)benzamide]
Second: [H][C@]1(c2n[nH]c(=O)c3ccccc32)C[C@]2(C[C@@H](NC(=O)c3cccc(-c4cc[nH]n4)c3)C2)C1 (stereo partly drawn) [Example 361, N-((aR)-6-(4-oxo-3,4-dihydrophthalazin-1-yl)spiro[3.3]heptan-2-yl)-3-(1H-pyrazol-3-yl)benzamide]
The IC50 of the first is higher: 15.1 to 100 nM for the first, 5.1 to 15 nM for the second. The second is the more potent here.

First: [H][C@]1(c2n[nH]c(=O)c3ccccc32)C[C@]2(C[C@@H](NC(=O)c3cccc(-c4nc(C)cs4)c3)C2)C1 (stereo partly drawn) [Example 340, 3-(4-methylthiazol-2-yl)-N-((aR)-6-(4-oxo-3,4-dihydrophthalazin-1-yl)spiro[3.3]heptan-2-yl)benzamide]
Second: [H][C@]1(c2n[nH]c(=O)c3ccccc32)C[C@]2(C[C@@H](NC(=O)c3ccc(-c4noc(C)n4)cc3)C2)C1 (stereo partly drawn) [Example 360, 4-(5-methyl-1,2,4-oxadiazol-3-yl)-N-((aR)-6-(4-oxo-3,4-dihydrophthalazin-1-yl)spiro[3.3]heptan-2-yl)benzamide]
The IC50 of the first is lower: 5.1 to 15 nM for the first, 15.1 to 100 nM for the second. The first is the more potent here.

`[H][C@]1(c2n[nH]c(=O)c3ccccc32)C[C@]2(C[C@@H](NC(=O)c3ccc(OC)nc3)C2)C1` (stereo partly drawn) [Example 341, 6-methoxy-N-((aR)-6-(4-oxo-3,4-dihydrophthalazin-1-yl)spiro[3.3]heptan-2-yl)nicotinamide] and `[H][C@]1(c2n[nH]c(=O)c3ccccc32)C[C@]2(C[C@@H](NC(=O)c3ccc(N(C)C)nc3)C2)C1` (stereo partly drawn) [Example 356, 6-(dimethylamino)-N-((aR)-6-(4-oxo-3,4-dihydrophthalazin-1-yl)spiro[3.3]heptan-2-yl)nicotinamide] fall in the same range of IC50: 15.1 to 100 nM for the first, 15.1 to 100 nM for the second.

First: [H][C@]1(c2n[nH]c(=O)c3ccccc32)C[C@]2(C[C@@H](NC(=O)c3ccc(C(F)(F)F)nc3)C2)C1 (stereo partly drawn) [Example 342, N-((aR)-6-(4-oxo-3,4-dihydrophthalazin-1-yl)spiro[3.3]heptan-2-yl)-6-(trifluoromethyl) nicotinamide]
Second: [H][C@]1(c2n[nH]c(=O)c3ccccc32)C[C@]2(C[C@@H](NC(=O)c3ccc(-n4cccn4)nc3)C2)C1 (stereo partly drawn) [Example 346, N-((aR)-6-(4-oxo-3,4-dihydrophthalazin-1-yl)spiro[3.3]heptan-2-yl)-6-(1H-pyrazol-1-yl)nicotinamide]
The IC50 of the first is higher: 100 to 2100 nM for the first, 15.1 to 100 nM for the second.

First: [H][C@]1(c2n[nH]c(=O)c3ccccc32)C[C@]2(C[C@@H](NC(=O)c3ccc(C)nc3O)C2)C1 (stereo partly drawn) [Example 343, 2-hydroxy-6-methyl-N-((aR)-6-(4-oxo-3,4-dihydrophthalazin-1-yl)spiro[3.3]heptan-2-yl)nicotinamide]
Second: [H][C@]1(c2n[nH]c(=O)c3ccccc32)C[C@]2(C[C@@H](NC(=O)c3cnc(O)c(Cl)c3)C2)C1 (stereo partly drawn) [Example 347, 5-chloro-6-hydroxy-N-((aR)-6-(4-oxo-3,4-dihydrophthalazin-1-yl)spiro[3.3]heptan-2-yl)nicotinamide]
The IC50 of the first is lower: 15.1 to 100 nM for the first, 100 to 2100 nM for the second. The first is the more potent here.

First: [H][C@]1(c2n[nH]c(=O)c3ccccc32)C[C@]2(C[C@@H](NC(=O)c3ccc(CCN4CCCC4)nc3)C2)C1 (stereo partly drawn) [Example 344, N-((aR)-6-(4-oxo-3,4-dihydrophthalazin-1-yl)spiro[3.3]heptan-2-yl)-6-(2-(pyrrolidin-1-yl)ethyl)nicotinamide]
Second: [H][C@]1(c2n[nH]c(=O)c3ccccc32)C[C@]2(C[C@@H](NC(=O)c3ccc(N4CCCC4)cn3)C2)C1 (stereo partly drawn) [Example 369, N-((aR)-6-(4-oxo-3,4-dihydrophthalazin-1-yl)spiro[3.3]heptan-2-yl)-5-(pyrrolidin-1-yl)picolinamide]
The IC50 of the first is higher: 100 to 2100 nM for the first, 15.1 to 100 nM for the second.

First: [H][C@]1(c2n[nH]c(=O)c3ccccc32)C[C@]2(C[C@@H](NC(=O)c3ccc(-c4nn[nH]n4)cc3)C2)C1 (stereo partly drawn) [Example 345, N-((aR)-6-(4-oxo-3,4-dihydrophthalazin-1-yl)spiro[3.3]heptan-2-yl)-4-(2H-tetrazol-5-yl)benzamide]
Second: [H][C@]1(c2n[nH]c(=O)c3ccccc32)C[C@]2(C[C@@H](NC(=O)c3ccc(-c4cc[nH]n4)cc3)C2)C1 (stereo partly drawn) [Example 357, N-((aR)-6-(4-oxo-3,4-dihydrophthalazin-1-yl)spiro[3.3]heptan-2-yl)-4-(1H-pyrazol-3-yl)benzamide]
The IC50 of the first is higher: 100 to 2100 nM for the first, 15.1 to 100 nM for the second.

Compared with `[H][C@]1(c2n[nH]c(=O)c3ccccc32)C[C@]2(C[C@@H](NC(=O)c3ccc(-n4cncn4)cc3)C2)C1` (stereo partly drawn) [Example 348, N-((aR)-6-(4-oxo-3,4-dihydrophthalazin-1-yl)spiro[3.3]heptan-2-yl)-4-(1H-1,2,4-triazol-1-yl)benzamide], `[H][C@]1(c2n[nH]c(=O)c3ccccc32)C[C@]2(C[C@@H](NC(=O)c3ccc(-n4ccnc4)cc3)C2)C1` (stereo partly drawn) [Example 359, 4-(1H-imidazol-1-yl)-N-((aR)-6-(4-oxo-3,4-dihydrophthalazin-1-yl)spiro[3.3]heptan-2-yl)benzamide] is higher in IC50: 15.1 to 100 nM for the first, 100 to 2100 nM for the second. The first is the more potent here.

Compared with `[H][C@]1(c2n[nH]c(=O)c3ccccc32)C[C@]2(C[C@@H](NC(=O)c3ccc(-n4cnc(C)c4)c(OC)c3)C2)C1` (stereo partly drawn) [Example 349, 3-methoxy-4-(4-methyl-1H-imidazol-1-yl)-N-((aR)-6-(4-oxo-3,4-dihydrophthalazin-1-yl)spiro[3.3]heptan-2-yl)benzamide], `[H][C@]1(c2n[nH]c(=O)c3ccccc32)C[C@]2(C[C@@H](NC(=O)c3ccc(-c4cnc(C)s4)c(OC)c3)C2)C1` (stereo partly drawn) [Example 350, 3-methoxy-4-(2-methylthiazol-5-yl)-N-((aR)-6-(4-oxo-3,4-dihydrophthalazin-1-yl)spiro[3.3]heptan-2-yl)benzamide] is lower in IC50: 5.1 to 15 nM for the first, 2.01 to 5 nM for the second. The second is the more potent here.

Compared with `COc1ccc(C(=O)NC2CC3(C2)CC(c2n[nH]c(=O)c4ccccc24)C3)nc1` [Example 351, 5-methoxy-N-((aR)-6-(4-oxo-3,4-dihydrophthalazin-1-yl)spiro[3.3]heptan-2-yl)picolinamide], `[H][C@]1(c2n[nH]c(=O)c3ccccc32)C[C@]2(C[C@@H](NC(=O)c3ccc4cnn(C)c4c3)C2)C1` (stereo partly drawn) [Example 366, 1-methyl-N-((aR)-6-(4-oxo-3,4-dihydrophthalazin-1-yl)spiro[3.3]heptan-2-yl)-1H-indazole-6-carboxamide] is lower in IC50: 100 to 2100 nM for the first, 5.1 to 15 nM for the second. The second is the more potent here.

First: [H][C@]1(c2n[nH]c(=O)c3ccccc32)C[C@]2(C[C@@H](NC(=O)c3cccc(-n4ccnc4)c3)C2)C1 (stereo partly drawn) [Example 352, 3-(1H-imidazol-1-yl)-N-((aR)-6-(4-oxo-3,4-dihydrophthalazin-1-yl)spiro[3.3]heptan-2-yl)benzamide]
Second: [H][C@]1(c2n[nH]c(=O)c3ccccc32)C[C@]2(C[C@@H](NC(=O)c3ccc4ccn(C)c4c3)C2)C1 (stereo partly drawn) [Example 367, 1-methyl-N-((aR)-6-(4-oxo-3,4-dihydrophthalazin-1-yl)spiro[3.3]heptan-2-yl)-1H-indole-6-carboxamide]
The IC50 of the first is higher: 15.1 to 100 nM for the first, 5.1 to 15 nM for the second. The second is the more potent here.

`[H][C@]1(c2n[nH]c(=O)c3ccccc32)C[C@]2(C[C@@H](NC(=O)c3ccc(OC(C)C)c(C#N)c3)C2)C1` (stereo partly drawn) [Example 353, 3-cyano-4-isopropoxy-N-((aR)-6-(4-oxo-3,4-dihydrophthalazin-1-yl)spiro[3.3]heptan-2-yl)benzamide] and `[H][C@]1(c2n[nH]c(=O)c3ccccc32)C[C@]2(C[C@@H](NC(=O)c3cccc(OC(F)F)c3)C2)C1` (stereo partly drawn) [Example 354, 3-(difluoromethoxy)-N-((aR)-6-(4-oxo-3,4-dihydrophthalazin-1-yl)spiro[3.3]heptan-2-yl)benzamide] fall in the same range of IC50: 5.1 to 15 nM for the first, 5.1 to 15 nM for the second.

`[H][C@]1(c2n[nH]c(=O)c3ccccc32)C[C@]2(C[C@@H](NC(=O)C3=C(OCC)C(=O)N(CC(F)(F)F)C3)C2)C1` (stereo partly drawn) [Example 355, 4-ethoxy-5-oxo-N-((aR)-6-(4-oxo-3,4-dihydrophthalazin-1-yl)spiro[3.3]heptan-2-yl)-1-(2,2,2-trifluoroethyl)-2,5-dihydro-1H-pyrrole-3-carboxamide] and `[H][C@]1(c2n[nH]c(=O)c3ccccc32)C[C@]2(C[C@@H](NC(=O)c3cn4cccc(C)c4n3)C2)C1` (stereo partly drawn) [Example 362, 8-methyl-N-((aR)-6-(4-oxo-3,4-dihydrophthalazin-1-yl)spiro[3.3]heptan-2-yl)imidazo[1,2-a]pyridine-2-carboxamide] fall in the same range of IC50: 15.1 to 100 nM for the first, 15.1 to 100 nM for the second.

First: [H][C@]1(c2n[nH]c(=O)c3ccccc32)C[C@]2(C[C@@H](NC(=O)c3ccc(-c4cnco4)cc3)C2)C1 (stereo partly drawn) [Example 358, 4-(oxazol-5-yl)-N-((aR)-6-(4-oxo-3,4-dihydrophthalazin-1-yl)spiro[3.3]heptan-2-yl)benzamide]
Second: [H][C@]1(c2n[nH]c(=O)c3ccccc32)C[C@]2(C[C@@H](NC(=O)c3ccc4c(ccn4C)c3)C2)C1 (stereo partly drawn) [Example 368, 1-methyl-N-((aR)-6-(4-oxo-3,4-dihydrophthalazin-1-yl)spiro[3.3]heptan-2-yl)-1H-indole-5-carboxamide]
The IC50 of the first is higher: 15.1 to 100 nM for the first, 5.1 to 15 nM for the second. The second is the more potent here.

First: [H][C@]1(c2n[nH]c(=O)c3ccccc32)C[C@]2(C[C@@H](NC(=O)c3cn4cc(Br)ccc4n3)C2)C1 (stereo partly drawn) [Example 363, 6-bromo-N-((aR)-6-(4-oxo-3,4-dihydrophthalazin-1-yl)spiro[3.3]heptan-2-yl)imidazo[1,2-a]pyridine-2-carboxamide]
Second: [H][C@]1(c2n[nH]c(=O)c3ccccc32)C[C@]2(C[C@@H](NC(=O)c3cn(C)c4ccccc34)C2)C1 (stereo partly drawn) [Example 364, 1-methyl-N-((aR)-6-(4-oxo-3,4-dihydrophthalazin-1-yl)spiro[3.3]heptan-2-yl)-1H-indole-3-carboxamide]
The IC50 of the first is higher: 15.1 to 100 nM for the first, 5.1 to 15 nM for the second.

Compound `[H][C@]1(c2n[nH]c(=O)c3ccccc32)C[C@]2(C[C@@H](NC(=O)c3nc(-c4ccncc4)sc3C)C2)C1` (stereo partly drawn) [Example 365, 5-methyl-N-((aR)-6-(4-oxo-3,4-dihydrophthalazin-1-yl)spiro[3.3]heptan-2-yl)-2-(pyridin-4-yl)thiazole-4-carboxamide] has an IC50 of 15.1 to 100 nM.

— US9902702B2, “Spirocycloheptanes as inhibitors of rock” (BRISTOL-MYERS SQUIBB COMPANY, priority 2014, dated 2018)
